T1: Aldh (CTN_1548) (Thermotoga neapolitana, UniProt B9K9U1)
T1 construct: full-length from genomic DNA, vector-encoded N-terminal residues, C-terminal His-tag kept; E. coli JM109, pHsh; heat treatment, Ni column
T1 sequence (B9K9U1 2-472): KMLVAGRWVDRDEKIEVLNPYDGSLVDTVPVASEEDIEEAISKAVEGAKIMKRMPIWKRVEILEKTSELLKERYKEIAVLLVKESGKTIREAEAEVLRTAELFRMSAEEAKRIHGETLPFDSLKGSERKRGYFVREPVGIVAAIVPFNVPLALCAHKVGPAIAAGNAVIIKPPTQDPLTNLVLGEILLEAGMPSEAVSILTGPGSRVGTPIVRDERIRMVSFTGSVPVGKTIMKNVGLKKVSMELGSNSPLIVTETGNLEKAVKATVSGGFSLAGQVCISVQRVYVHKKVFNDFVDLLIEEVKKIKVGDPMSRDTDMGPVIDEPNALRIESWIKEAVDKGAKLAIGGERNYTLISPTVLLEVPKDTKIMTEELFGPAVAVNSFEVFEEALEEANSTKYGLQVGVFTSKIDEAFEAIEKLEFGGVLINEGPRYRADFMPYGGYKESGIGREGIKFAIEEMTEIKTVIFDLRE

B1: Fe-AAdh (CTN_0580) (Thermotoga neapolitana DSM 4359) (protein)
chain: FKISCYLPTEIIFRVGAVDELEERAKKLGKKALIVTGRSSTKKTGLLQRVQDLLKKAGVESIVFDKIVPNPISDHVDEAAEIVRKEKIDFIVGLGGGSPIDSAKAISITAPNEGKFWDYVPVGGGKIPEKSIPVVAIPTTHGTGTEADPFAVITNPETKEKVGIGYRNTFPVLSLVDPEVMKTLPKDQTAYTSMDAFYHAIEAFLNVNANPYSDVLALDAMKRIVTYLPVAYENGEDMEARTNLAWASTEAGITETLTGVIANHALEHGLSGFYPEITHGLGLCITGPYLFEYIFDHAYERLAIVGREVFGVYETDDRKAGKLAIKKLRDFQEMFGLNKRLSELGVKEEDIPKMAETGYRILNGVVVVTPGNLTAKDMEEIFRRCY
notes: full-length from genomic DNA, start Met omitted in primer (vector-encoded N-terminal residues), C-terminal His-tag kept; E. coli JM109, pHsh; heat treatment, Ni column, anaerobic

Tests used:
Aldh (CTN_1548) = target: T1, Aldh (CTN_1548); test: spectrophotometric NAD(P)H formation, […] nm; type: biochemical; settings: 20 mM acetaldehyde, 1 mM NAD(P)+, no CoASH, 85 °C, various pH
purified protein = substrate: CC(=O)SCCNC(=O)CCNC(=O)[C@H](O)C(C)(C)COP(=O)(O)OP(=O)(O)OC[C@H]1O[C@@H](n2cnc3c(N)ncnc32)[C@H](O)[C@@H]1OP(=O)(O)O; test: purified protein; type: biochemical, Thermotoga neapolitana; settings: 0.25 mM NADPH, pH 6.5, 80 °C, reduction to acetaldehyde

Molecule	spectrophotometric NAD(P)H formation, 340 nm (Aldh (CTN_1548))	Km (purified protein) [µM]
NC(=O)c1ccc[n+]([C@@H]2O[C@H](COP(=O)(O)OP(=O)(O)OC[C@H]3O[C@@H](n4cnc5c(N)ncnc54)[C@H](O)[C@@H]3O)[C@@H](O)[C@H]2O)c1 [NAD^+]	catalyzed the oxidation of aldehydes to acetic acid using either NAD^+ or NADP^+ as coenzyme	–
CC=O [ac-ald]	exhibited only CoA-independent activity that oxidizes ac-ald to acetic acid	–
B1	–	1750

Source: publication PMC7806712, “A novel bifunctional aldehyde/alcohol dehydrogenase catalyzing reduction of acetyl-CoA to ethanol at temperatures up to 95 °C” (Scientific Reports, 2021)
